The subject of one data set is solid tumors. The conditions noted are these: cited from earlier work.
For data set [1], the system named is mortalin. The data set can be described thus: Mortalin release into supernatants of K562 cells, SDS-PAGE and Western blotting. The conditions noted are these: for release of mortalin from complement-treated cells: 30 minutes pretreatment (PMB 100 micrograms per milliliter, PD98059 10 micromolar), then sublytic anti-K562 antibody and NHS, FIGS. 6a-d; for mortalin release in response to sublytic dose of pore-former: mellitin 70 micromolar, SLO 900 units per milliliter, 10 minutes 37 degrees, no complement, FIGS. 4c-d. Type of data set: cell-based, human. As for the experimental part:
(§1) Collection of extracellular protein: Cells were treated with antibodies for 30 minutes at 4 degrees centigrade and then with NHS or HI-NHS (50 percent) for 10 minutes at 37 degrees centigrade. Then, the cells were extensively washed into HBSS and incubated at 37 degrees centigrade. At different times, cells were removed by centrifugation at 250×g and supernatants were collected and kept frozen until analyzed. In some experiments, cells were first metabolically labeled for 2 hours at 37 degrees centigrade with an L-[^35S]methionine, L-[^35S]cysteine mix (Amersham Pharmacia, Uppsala, Sweden) at 200 microcuries per milliliter in RPMI (lacking methionine and cysteine) and 20 millimolar HEPES-pH 7.0. Cytotoxicity assays and collection of extracellular proteins were performed as described above. Radioactivity in the supernatants was quantified in a beta-Scintillation Counter (Tri-Carb, Packard).
Protein analyses: Protein concentration was analyzed with the BCA Protein Assay Kit (Pierce, Rockford, Ill., USA). Samples of 20 micrograms of protein was subjected to SDS-PAGE under reducing conditions (50 millimolar DTT), in a 10 percent acrylamide gel, and stained with Coomassie Blue or silver. Selected protein species were excised from Coomassie Blue-stained gels and analyzed by mass spectrometry (MALDI-MS) at the Maiman Institute for Proteome Research (Tel-Aviv University). Alternatively, the electrophoretically separated proteins were transferred onto a nitrocellulose membrane (Schleicher & Schuell, Dassel, Germany). The membrane was blocked with 5 percent skim milk (Tnuva, Rehovot, Israel) in Tris-buffered saline containing 0.05 percent Tween-20 (Sigma; TBST) for 1 hour at room temperature. The membrane was treated with rabbit anti-mortalin antibodies and then with peroxidase-conjugated goat anti-rabbit IgG. The labeled membrane was developed with an enhanced chemiluminescence reagent (Pierce, Rockford, Ill., USA) and exposed to a SuperRX film (Fuji, Tokyo, Japan).
On the technique in general: A western blot detects proteins with antibodies after separation by electrophoresis.

For data set [2], the system named is K562 cells. The data set can be described thus: Release of metabolically-labeled proteins from complement-treated K562 cells. Type of data set: cell-based, human. The note with it: pretreatment 30 minutes with 100 micrograms per milliliter PMB or 10 micromolar PD; radioactivity in supernatants; FIG. 6e. As for the experimental part: as §1
The subject of data set [3] is K562 cells. Nature of the data set: Complement-induced protection assay. Type of data set: cell-based, human. The conditions noted are these: cells pre-treated with inhibitor and sublytic complement, then lytic dose of antibody and complement; FIGS. 6f-g. As for the experimental part: Cell lysis and induced protection assays: Cytotoxicity assays were performed as previously described (Reiter, Y. and Fishelson, Z. 1992. Mol Immunol 29:771). Briefly, cells were incubated with diluted anti-K562 antiserum for 30 minutes at 4 degrees centigrade and then with complement (NHS, C7- or C8-deficient serum or HI-NHS, 50 percent) for 60 minutes at 37 degrees centigrade. Cell lysis was determined via Trypan blue staining. For the complement-induced protection assays, the cells were first treated with sublytic doses of antibody and NHS, washed and then incubated with lytic doses of antibody and NHS (Reiter, Y. et al., 1992. Eur J Immunol 22:1207). Statistical significance was analyzed by using the two-sided unpaired student's t-test.

Data set [4] deals with K562 cells. Nature of the data set: Complement-mediated cell lysis (cytotoxicity) assay, Trypan blue staining. The data set is classed as cell-based, human. The note with it: 10 micromolar cathepsin L inhibitor 30 minutes, anti-K562 1:40 or 1:50, NHS 60 minutes; versus DMSO; FIG. 8b. As for the experimental part:
(§2) Cells and cell lysates: The human erythroleukemic cell line K562 was cultured in RPMI-1640 medium supplemented with 10 percent (v/v) heat-inactivated fetal bovine serum (Gibco laboratories, Grand Island, NY, USA), 1 percent glutamine, 2 percent pyruvate and antibiotics mixture (Bio-Lab, Jerusalem, Israel), at 37 degrees centigrade in a 5 percent carbon dioxide atmosphere. To prepare cell lysates, 20 million cells were mixed with 1 milliliter lysis buffer composed of 100 millimolar Tris-pH 7.5, 10 millimolar EDTA, protease inhibitor cocktail (Sigma) and 0.7 percent Triton X-100. After 3 cycles of freezing and thawing, the cell lysate was subjected to centrifugation for 15 minutes at 14,000×g, and the supernatant was collected and diluted with 1 milliliter HBSS (Sigma, Rehovot, Israel).
Cell lysis and induced protection assays: Cytotoxicity assays were performed as previously described (Reiter, Y. and Fishelson, Z. 1992. Mol Immunol 29:771). Briefly, cells were incubated with diluted anti-K562 antiserum for 30 minutes at 4 degrees centigrade and then with complement (NHS, C7- or C8-deficient serum or HI-NHS, 50 percent) for 60 minutes at 37 degrees centigrade. Cell lysis was determined via Trypan blue staining. […] Statistical significance was analyzed by using the two-sided unpaired student's t-test.

Data set [5] has as its system mortalin. The data set can be described thus: Mortalin expression level in K562 cells, Western blotting of cell lysates. The conditions noted are these: cathepsin L inhibitor 5, 10, 20 or 40 micromolar, 30 minutes 37 degrees; FIG. 8a. The data set is classed as cell-based, human. As for the experimental part:
as §2
Protein analyses: Protein concentration was analyzed with the BCA Protein Assay Kit (Pierce, Rockford, Ill., USA). Samples of 20 micrograms of protein was subjected to SDS-PAGE under reducing conditions (50 millimolar DTT), in a 10 percent acrylamide gel, and stained with Coomassie Blue or silver. Selected protein species were excised from Coomassie Blue-stained gels and analyzed by mass spectrometry (MALDI-MS) at the Maiman Institute for Proteome Research (Tel-Aviv University). […]

Where a SMILES comes first, the peptide text is derived from it. The star is where a group is joined. Cbz = O=C(OCc1ccccc1)*; CH2F = FC*

Consider `CCn1c(=O)/c(=C2\Sc3ccccc3N2C)s/c1=C\c1cccc[n+]1CC.[Cl-]` [MKT-077], for which the “kidney toxicity in human patients” value with solid tumors (Propper et al. 1999) is on record as “irreversible kidney damage”. For the same compound, in the data set with solid tumors (cancer patients), the “effectiveness when used to treat cancer patients” value is on record as “ineffective or suboptimally effective”.

Turning to `COc1cccc(-c2cc(=O)c3ccccc3o2)c1N` [PD98059], the “release of mortalin from complement-treated cells” value with mortalin [1] is given as “significantly reduced”. For the same compound, the “complement-induced release of metabolically-labeled proteins” value with K562 cells [2] was “blocked”. For the same compound, the “acquired resistance to lytic complement after sublytic complement” value in the data set on K562 cells [3] is on record as “did not acquire the resistance to lytic complement”.

Turning to `O=C(N[C@@H](Cc1ccccc1)C(=O)N[C@@H](Cc1ccccc1)C(=O)CF)OCc1ccccc1` [cathepsin L inhibitor, Z-Phe-Phe-CH2F] (Cbz-Phe-Phe-CH2F), the “resistance of treated cells to lysis by antibody and complement” value in the data set with K562 cells [4] was “enhanced resistance”. Further, the “mortalin expression in K562 cells” value in the data set on mortalin [5] is given as “elevation of mortalin expression”.

Streptolysin O [SLO]: the “mortalin release in response to sublytic dose of pore-former” value in the data set on mortalin [1] is “not released”.

In the case of mellitin, the “mortalin release in response to sublytic dose of pore-former” value in the data set with mortalin [1] is “not released”.

polymyxin B [PMB]: in the data set with mortalin [1], the “release of mortalin from complement-treated cells” value was “significantly reduced”. Moreover, the “complement-induced release of metabolically-labeled proteins” value in the data set with K562 cells [2] is “blocked”. The “acquired resistance to lytic complement after sublytic complement” value in the data set on K562 cells [3] is reported as “did not acquire the resistance to lytic complement”.

Values taken from patent publication US8293716B2, “Method of treating cancer by modulation of mortalin” (Ramot At Tel Aviv University Ltd., priority 2005, dated 2012).
